The NIST ThermoML archive (doi:10.1016/j.tca.2015.03.016)
Values joined by “and” are separate entries in the source; they are usually repeats but may differ in a detail not shown here. Identical values can stand only once.

Settings: Liquid, Transpiration method

NC1CCCCC1 [cyclohexylamine]
Settings | vapor or sublimation pressure [kPa]
283.2 K | 0.4635
286.2 K | 0.5583
290.1 K | 0.7237
293.3 K | 0.9124
296.2 K | 1.06
298.1 K | 1.182
299.3 K | 1.28
302.3 K | 1.541
305.3 K | 1.788
308.3 K | 2.115

C1CCC(NC2CCCCC2)CC1 [N-cyclohexylcyclohexanamine]
Settings | vapor or sublimation pressure [kPa]
295.4 K | 0.00322
298.3 K | 0.00416
301.2 K | 0.0055
304.2 K | 0.00706
307.2 K | 0.00889
310.2 K | 0.01123
313.2 K | 0.01433
315.1 K | 0.0165
318.3 K | 0.02093
321.2 K | 0.02576
324.2 K | 0.03192
327.2 K | 0.03941
330.2 K | 0.0492
333.2 K | 0.05903

CNC1CCCCC1 [N-methylcyclohexylamine]
Settings | vapor or sublimation pressure [kPa]
275.2 K | 0.1412
278.2 K | 0.1788
281.2 K | 0.2211
284.2 K | 0.2727
287.2 K | 0.3362
290.4 K | 0.4224
293.2 K | 0.4889
296.2 K | 0.606
299.2 K | 0.7392
302.2 K | 0.8882
305.2 K | 1.044
308.3 K | 1.278
311.2 K | 1.51
314.2 K | 1.784

CN(C)C1CCCCC1 [N,N-dimethylcyclohexylamine]
Settings | vapor or sublimation pressure
275.3 K | 0.0902 kPa and 0.0943 kPa
275.4 K | 0.0923 kPa
278.3 K | 0.1123 kPa
281.2 K | 0.1456 kPa
284.2 K | 0.1766 kPa
287.2 K | 0.2125 kPa
290.3 K | 0.2601 kPa
293.2 K | 0.3186 kPa
296.2 K | 0.383 kPa
299.2 K | 0.472 kPa
302.2 K | 0.5659 kPa
305.3 K | 0.6634 kPa
308.3 K | 0.8071 kPa
311.2 K | 0.912 kPa
314.3 K | 1.106 kPa
